Reference: patent US11319298B2 (Merck Sharp & Dohme Corp., priority 2016, dated 2022)

Target: T1, human M4 muscarinic acetylcholine receptor (Homo sapiens, UniProt P08173)
T1 construct: expressed in transfected cells; host or cells: CHO-K1
T1 sequence (P08173 1-479): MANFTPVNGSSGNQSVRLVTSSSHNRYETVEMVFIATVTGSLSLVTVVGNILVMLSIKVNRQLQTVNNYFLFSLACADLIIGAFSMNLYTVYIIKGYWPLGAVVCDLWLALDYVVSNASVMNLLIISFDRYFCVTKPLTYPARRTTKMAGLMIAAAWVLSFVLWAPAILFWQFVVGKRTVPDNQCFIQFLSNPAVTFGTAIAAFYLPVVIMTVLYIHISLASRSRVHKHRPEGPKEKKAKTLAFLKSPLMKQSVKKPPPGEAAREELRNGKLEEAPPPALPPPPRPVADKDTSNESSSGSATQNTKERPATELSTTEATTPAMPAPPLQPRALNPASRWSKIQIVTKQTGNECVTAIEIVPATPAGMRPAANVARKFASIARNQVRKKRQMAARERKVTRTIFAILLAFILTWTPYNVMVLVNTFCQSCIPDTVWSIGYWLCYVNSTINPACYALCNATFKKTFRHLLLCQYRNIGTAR
Assay: human FLIPR-based M4 PAM assay, CHO-K1 cells stably transfected with human M4 receptor and chimeric G-protein Gαqi5
Assay type: cell-based
Settings: inflection point (IP) of dose response curve; acetylcholine added at 20% of maximum response; CHO-K1 human M4/Gαqi5, FLIPR Tetra
Procedure, shortened: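 CHO-K1 cells were loaded with calcium dye at 37 °C for ~1 h. Fluorescence (ex 470–495/em 515–575 nm) was read for 4 min after test compound at increasing concentrations, then 3.5 min after acetylcholine at an EC20; sometimes a third addition at EC70 followed. The value is the inflection point of a 4-parameter logistic fit.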

Row | EC50 [nM] | SMILES
1 | 177 | COc1ccc(OC2CCN(c3nnc(C(=O)NCc4ccnnc4)cc3C)CC2)cn1 [Example 139, 6-{4-[(6-methoxypyridin-3-yl)oxy]piperidin-1-yl}-5-methyl-N-(pyridazin-4-ylmethyl)pyridazine-3-carboxamide]
2 | 179 | COc1ncc(OC2CCN(c3nnc(C(=O)NCc4ccncc4)cc3C)CC2)cc1F [Example 140, 6-{4-[(5-fluoro-6-methoxypyridin-3-yl)oxy]piperidin-1-yl}-5-methyl-N-(pyridin-4-ylmethyl)pyridazine-3-carboxamide]
3 | 57 | COc1ccc(OC2CCN(c3nnc(C(=O)N[C@@H]4CCc5ncccc5C4)cc3C)CC2)cn1 [Example 141A, (R)-6-(4-((6-methoxypyridin-3-yl)oxy)piperidin-1-yl)-5-methyl-N-(5,6,7,8-tetrahydroquinolin-6-yl)pyridazine-3-carboxamide]
4 | 173 | COc1ccc(OC2CCN(c3nnc(C(=O)N[C@H]4CCc5ncccc5C4)cc3C)CC2)cn1 [Example 141B, (S)-6-(4-((6-methoxypyridin-3-yl)oxy)piperidin-1-yl)-5-methyl-N-(5,6,7,8-tetrahydroquinolin-6-yl)pyridazine-3-carboxamide]
5 | 185 | COc1ccc(OC2CCN(c3nnc(C(=O)NCCn4ccnn4)cc3C)CC2)cn1 [Example 142, 6-{4-[(6-methoxypyridin-3-yl)oxy]piperidin-1-yl}-5-methyl-N-[2-(1H-1,2,3-triazol-1-yl)ethyl]pyridazine-3-carboxamide]
6 | 193 | Cc1nc2ccc(OC3CCN(c4nnc(C(=O)NCc5ccncc5)cc4C)CC3)cc2o1 [Example 143, 5-methyl-6-{4-[(2-methyl-1,3-benzoxazol-6-yl)oxy]piperidin-1-yl}-N-(pyridin-4-ylmethyl)pyridazine-3-carboxamide]
7 | 193 | Cc1cc(C(=O)NC2CCc3cccnc3C2)nnc1N1CCC(OCC2CC2)CC1 (stereo not shown) [Example 144, 6-[4-(cyclopropylmethoxy)piperidin-1-yl]-5-methyl-N-(5,6,7,8-tetrahydroquinolin-7-yl)pyridazine-3-carboxamide]
8 | 194 | COc1ccc(OC2CCN(c3nnc(C(=O)NC4CNC(=O)C4)cc3C)CC2)cn1 (stereo not shown) [Example 145, 6-{4-[(6-methoxypyridin-3-yl)oxy]piperidin-1-yl}-5-methyl-N-(5-oxopyrrolidin-3-yl)pyridazine-3-carboxamide]
9 | 209 | COc1ccc(OC2CCN(c3nnc(C(=O)NC45CC(C4)C5)cc3C)CC2)cn1 [Example 147, N-bicyclo[1.1.1]pent-1-yl-6-{4-[(6-methoxypyridin-3-yl)oxy]piperidin-1-yl}-5-methylpyridazine-3-carboxamide]
10 | 221 | Cc1nc2ccc(OC3CCN(c4nnc(C(=O)NC5C6CC5C6)cc4C)CC3)cc2o1 (stereo not shown) [Example 148, N-bicyclo[1.1.1]pent-2-yl-5-methyl-6-{4-[(2-methyl-1,3-benzoxazol-6-yl)oxy]piperidin-1-yl}pyridazine-3-carboxamide]
11 | 228 | COc1ccc(OC2CCN(c3nnc(C(=O)NCc4c(C)nc5ccccn45)cc3C)CC2)cn1 [Example 149, 6-{4-[(6-methoxypyridin-3-yl)oxy]piperidin-1-yl}-5-methyl-N-[(2-methylimidazo[1,2-a]pyridin-3-yl)methyl]pyridazine-3-carboxamide]
12 | 233 | COc1ccc(OC2CCN(c3nnc(C(=O)NCc4ccncn4)cc3C)CC2)cn1 [Example 150, 6-{4-[(6-methoxypyridin-3-yl)oxy]piperidin-1-yl}-5-methyl-N-(pyrimidin-4-ylmethyl)pyridazine-3-carboxamide]
13 | 241 | Cc1cc(C(=O)NCc2ccncc2Cl)nnc1N1CCC(Oc2cccc(C#N)c2)CC1 [Example 151, N-[(3-chloropyridin-4-yl)methyl]-6-[4-(3-cyanophenoxy)piperidin-1-yl]-5-methylpyridazine-3-carboxamide]
14 | 259 | Cc1cc(C(=O)NCc2ccncc2)nnc1N1CCC(OCC2CC2)CC1 [Example 152]
15 | 261 | COc1ccc(OC2CCN(c3nnc(C(=O)NCc4cccc(C#N)c4)cc3C)CC2)cn1 [Example 153, N-(3-cyanobenzyl)-6-{4-[(6-methoxypyridin-3-yl)oxy]piperidin-1-yl}-5-methylpyridazine-3-carboxamide]
16 | 262 | COc1ccc(OC2CCN(c3nnc(C(=O)NCc4ccncc4Cl)cc3C)CC2)cn1 [Example 154, N-[(3-chloropyridin-4-yl)methyl]-6-{4-[(6-methoxypyridin-3-yl)oxy]piperidin-1-yl}-5-methylpyridazine-3-carboxamide]

Row | EC50 [nM] | SMILES
17 | 265 | COc1ccc(OC2CCN(c3nnc(C(=O)NCc4cc(C)n(C)n4)cc3C)CC2)cn1 [Example 155, N-[(1,5-dimethyl-1H-pyrazol-3-yl)methyl]-6-{4-[(6-methoxypyridin-3-yl)oxy]piperidin-1-yl}-5-methylpyridazine-3-carboxamide]
18 | 272 | Cc1ccc(OC2CCN(c3nnc(C(=O)NCc4ccncc4)cc3C)CC2)cc1Cl [Example 156, 6-[4-(3-chloro-4-methylphenoxy)piperidin-1-yl]-5-methyl-N-(pyridin-4-ylmethyl)pyridazine-3-carboxamide]
19 | 277 | Cc1cc(C(=O)NC2C3CC2C3)nnc1N1CCC(Oc2ccc3c(c2)C(=O)N(C)C3)CC1 (stereo not shown) [Example 157, N-bicyclo[1.1.1]pent-2-yl-5-methyl-6-{4-[(2-methyl-3-oxo-2,3-dihydro-1H-isoindol-5-yl)oxy]piperidin-1-yl}pyridazine-3-carboxamide]
20 | 282 | COc1ccc(OC2CCN(c3nnc(C(=O)NCc4ccccc4OC)cc3C)CC2)cn1 [Example 158, N-(2-methoxybenzyl)-6-{4-[(6-methoxypyridin-3-yl)oxy]piperidin-1-yl}-5-methylpyridazine-3-carboxamide]
21 | 293 | COc1ccc(OC2CCN(c3nnc(C(=O)NC4CCc5ccncc5C4)cc3C)CC2)cn1 (stereo not shown) [Example 159, 6-{4-[(6-methoxypyridin-3-yl)oxy]piperidin-1-yl}-5-methyl-N-(5,6,7,8-tetrahydroisoquinolin-7-yl)pyridazine-3-carboxamide]
22 | 295 | Cc1cc(C(=O)NC2CCc3cccnc3C2)nnc1N1CCC(Oc2cccc(C#N)c2)CC1 (stereo not shown) [Example 160, 6-[4-(3-cyanophenoxy)piperidin-1-yl]-5-methyl-N-(5,6,7,8-tetrahydroquinolin-7-yl)pyridazine-3-carboxamide]
23 | 302 | COc1ccc(OC2CCN(c3nnc(C(=O)NC4CC4)cc3C)CC2)cn1 [Example 161, N-cyclopropyl-6-{4-[(6-methoxypyridin-3-yl)oxy]piperidin-1-yl}-5-methylpyridazine-3-carboxamide]
24 | 306 | COc1ccc(OC2CCN(c3nnc(C(=O)NCCn4ccnc4)cc3C)CC2)cn1 [Example 162, N-[2-(1H-imidazol-1-yl)ethyl]-6-{4-[(6-methoxypyridin-3-yl)oxy]piperidin-1-yl}-5-methylpyridazine-3-carboxamide]
25 | 325 | COc1ccc(OC2CCN(c3nnc(C(=O)NC4CCc5ncccc5C4)cc3C)CC2)cn1 (stereo not shown) [Example 163, 6-{4-[(6-methoxypyridin-3-yl)oxy]piperidin-1-yl}-5-methyl-N-(5,6,7,8-tetrahydroquinolin-6-yl)pyridazine-3-carboxamide]
26 | 434 | Cc1cc(C(=O)N[C@H]2CCc3cccnc3C2)nnc1N1CCC(Oc2cccc(C#N)c2)CC1 [Example 164A, (S)-6-[4-(3-cyanophenoxy)piperidin-1-yl]-5-methyl-N-(5,6,7,8-tetrahydroquinolin-7-yl)pyridazine-3-carboxamide]
27 | 338 | Cc1cc(C(=O)N[C@@H]2CCc3cccnc3C2)nnc1N1CCC(Oc2cccc(C#N)c2)CC1 [Example 164B, (R)-6-[4-(3-cyanophenoxy)piperidin-1-yl]-5-methyl-N-(5,6,7,8-tetrahydroquinolin-7-yl)pyridazine-3-carboxamide]
28 | 344 | COc1ccc(OC2CCN(c3nnc(C(=O)N[C@@H]4CCc5ccccc5C4)cc3C)CC2)cn1 [Example 165A, (R)-6-{4-[(6-methoxypyridin-3-yl)oxy]piperidin-1-yl}-5-methyl-N-(1,2,3,4-tetrahydronaphthalen-2-yl)pyridazine-3-carboxamide]
29 | 527 | COc1ccc(OC2CCN(c3nnc(C(=O)N[C@H]4CCc5ccccc5C4)cc3C)CC2)cn1 [Example 165B, (S)-6-{4-[(6-methoxypyridin-3-yl)oxy]piperidin-1-yl}-5-methyl-N-(1,2,3,4-tetrahydronapthalen-2-yl)pyridazine-3-carboxamide]
30 | 400 | COc1ccc(OC2CCN(c3nnc(C(=O)NCc4ccc5c(c4)OCO5)cc3C)CC2)cn1 [Example 166, N-(1,3-benzodioxol-5-ylmethyl)-6-{4-[(6-methoxypyridin-3-yl)oxy]piperidin-1-yl}-5-methylpyridazine-3-carboxamide]
31 | 417 | COc1ccc(OC2CCN(c3nnc(C(=O)NCc4ncn[nH]4)cc3C)CC2)cn1 [Example 167, 6-{4-[(6-methoxypyridin-3-yl)oxy]piperidin-1-yl}-5-methyl-N-(1H-1,2,4-triazol-5-ylmethyl)pyridazine-3-carboxamide]
